Reference: patent US20110178171A1, “COMPOUNDS FOR CANCER THERAPY” (China Medical University, priority 2010, published 2011)

Experiments:
[1] = test system: liver cancer cell line J5; assay: MTT growth inhibition assay, J5; assay type: cell-based; details: J5, hepatocarcinoma
Protocol: The results were determined by three independent experiments.
Besides, the above assay was also conducted on gastric cancer cell line NCI-N87, liver cancer cell line HepG2 and J5, lung cancer cell line A549, and oral cancer cell line OECM-1.

[2] = test system: PSA; assay: RT-PCR analysis of PSA expression; assay type: cell-based; details: human cancer cells, 0.5 μM to 2 μM, 24 h, dose-dependent (FIG. 3A)
Protocol: (§1) Total RNA from LNCaP, PC3, 3T3 cells was isolated as described above. cDNA was synthesized by reverse transcription of 2 μg of total RNA using oligo(dT)12-18 and SuperScript II RNA reverse transcriptase (Invitrogen). The cDNA was then used as the template to amplify the corresponding DNA fragments by PCR using two sets of synthetic oligonucleotide primers. DNA amplification was performed by PCR with the Thermocycler 2400 (PerkinElmer Life and Analytical Sciences, Boston, Mass.) using the following parameters: 35 cycles of denaturing at 95° C. for 1 min, annealing at 60° C. for 1 min, and extension at 72° C. for 2 min. Primers used for the AR PCR amplifications are (F): 5′-ATGGTGAGCAGAGTGCCCTA-3′ (SEQ ID NO: 1) (R): 5′-GTGGTGCTGGAAGCCTCTCCT-3′ (SEQ ID NO: 2) PSA (F) 5′-GGTGACCAAGTTCATGCTGTG-3′ (SEQ ID NO: 3) (R) 5′-GTGTCCTTGATCCACTTCCG-3′ (SEQ ID NO: 4) products were separated on 2% agarose gels, stained with ethidium bromide, and visualized using the Fluor Chem imaging system (Alpha InnoTech, San Leandro, Calif.), and levels of glyceraldehyde-3-phosphate dehydrogenase were used as the control.
(§2) RT-PCR was conducted to examine the effect of Z-K8 on several human cancer cells. Briefly, the cells were treated with Z-K8 (0.5 μM to 2 μM) or Luteolin (as a positive control) for 24 h. […]

[3] = test system: AR; assay: RT-PCR analysis of AR expression; assay type: cell-based, human
Protocol: as §1, §2

`COc1cc(/C=C2\C(=O)OCC2Cc2ccc3c(c2)OCO3)cc(OC)c1OC` (racemic) [Z-K8, Racemic (Z)-β-(3′,4′-Methylenedioxybenzyl)-α-(3′,4′,5′-trimethoxybenzylidene)-γ-butyrolactone] was tested, and the IC50 [1] was 2.5 µM, the “PSA expression (RT-PCR)” value [2] was “down regulated” and the “AR expression over time (RT-PCR)” value ([3]; LNCaP cells, 1 μM, different times (FIG. 3B)) was “decreased AR expression in a time-dependent manner”. For the same compound, the “AR expression (RT-PCR)” value ([3]; human cancer cells, 0.5 μM to 2 μM, 24 h, dose-dependent (FIG. 3A)) was “down regulated”.
